For data set [1], the system named is SUDHL10. Kind of data set: Induction of cytotoxicity (CellTiter-Glo, 5 h), SUDHL10. For orientation: In ATP-based viability assays light output follows the ATP content of the culture.
Data set [2] concerns SUDHL5. Kind of data set: Anti-proliferative effect (CellTiter-Glo, 72 h), SUDHL5. In kind it is cell-based. To be noted: SUDHL5 cells, antiproliferation, 72 h incubation, median, read-out: Antiproli SUDHL5 [M] (median). An outline of the steps: (§1)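 CTG luminescence read-out after 72 h compound exposure, 37 °C, humidified. Time-zero reference plate read at plating.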
Data set [3] concerns SUDHL10. Description: Induction of caspase-3/7 activity (Caspase-Glo 3/7), SUDHL10. In kind it is cell-based. To be noted: caspase-3/7 induction, SUDHL10 cells, 3 h treatment, median. The procedure, abridged: (§2)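 Caspase-Glo 3/7 luminescence, 3 h compound exposure, 37 °C, humidified. Minus medium-only blank. EC50 fit: C0=1, plateau = reference max induction.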
A further data set addresses MCL-1 (Homo sapiens, UniProt Q07820). Description: Protein-protein interaction assay MCL-1/Noxa BH3 peptide (MCL-1 assay), TR-FRET. The following applies: MBP-MCL-1 / Noxa BH3-derived peptide, median. In kind it is binding. The procedure, abridged: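 Displacement of the biotinylated Noxa BH3 peptide from MBP-tagged human MCL-1 (1 nM) is detected by time-resolved FRET. Compounds are tested in duplicate across eleven concentrations up to 20 μM, incubated 1 h at 22 °C and overnight at 4 °C, and IC50 is fitted with a four-parameter equation.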

Data set [4] has as its system SUDHL5. Kind of data set: Induction of cytotoxicity (CellTiter-Glo, 5 h), SUDHL5.
The subject of data set [5] is SUDHL5. Description: Induction of caspase-3/7 activity (Caspase-Glo 3/7), SUDHL5. In kind it is cell-based. The following applies: caspase-3/7 induction, SUDHL5 cells, 3 h treatment, median. The procedure, abridged:
as §2

Another data set concerns A2780. Kind of data set: Anti-proliferative effect (CellTiter-Glo, 72 h), A2780. Type of data set: cell-based. To be noted: A2780 cells, median, read-out: IC50 antiproliferation assay A2780 [M] (median). An outline of the steps: as §1
A further data set deals with OPM2. Kind of data set: Anti-proliferative effect (CellTiter-Glo, 72 h), OPM2. Type of data set: cell-based. The following applies: OPM2 cells, median, read-out: IC50 antiproliferation assay OPM2 [M] (median). The procedure, abridged: as §1
The subject of data set [6] is SUDHL10. Kind of data set: Anti-proliferative effect (CellTiter-Glo, 72 h), SUDHL10. In kind it is cell-based. The following applies: SUDHL10 cells, antiproliferation, 72 h incubation, median, read-out: Antiproli SUDHL10 [M] (median). The procedure, abridged: as §1
Where [7] appears, read: Homo sapiens, SU-DHL10, 5 h, read-out: Cytotox SUDHL10 [M] (median), SUDHL10 cells, cytotoxicity induction, CellTiter-Glo, 5 h incubation, median.
[8] abbreviates: read-out: Cytotox SUDHL5 [M] (median), SUDHL5 cells, cytotoxicity induction, CellTiter-Glo, 5 h incubation, median.
[9] abbreviates: read-out: Cytotox SUDHL10 [M] (median), SUDHL10 cells, cytotoxicity induction, CellTiter-Glo, 5 h incubation, median.
[10] abbreviates: Homo sapiens, SU-DHL-5, 5 h, read-out: Cytotox SUDHL5 [M] (median), SUDHL5 cells, cytotoxicity induction, CellTiter-Glo, 5 h incubation, median.

By EC50 is commonly meant the concentration at which the effect is half-maximal. Higher therefore signals weaker potency.

Where “and” joins values, the source holds several entries; their conditions need not be identical. Equal values may be shown once. Where a name gives a salt, the structure may show the parent alone. Read-outs that look alike come from different tables or passages of the source.

MCL-1, sequence (Q07820 whole entry): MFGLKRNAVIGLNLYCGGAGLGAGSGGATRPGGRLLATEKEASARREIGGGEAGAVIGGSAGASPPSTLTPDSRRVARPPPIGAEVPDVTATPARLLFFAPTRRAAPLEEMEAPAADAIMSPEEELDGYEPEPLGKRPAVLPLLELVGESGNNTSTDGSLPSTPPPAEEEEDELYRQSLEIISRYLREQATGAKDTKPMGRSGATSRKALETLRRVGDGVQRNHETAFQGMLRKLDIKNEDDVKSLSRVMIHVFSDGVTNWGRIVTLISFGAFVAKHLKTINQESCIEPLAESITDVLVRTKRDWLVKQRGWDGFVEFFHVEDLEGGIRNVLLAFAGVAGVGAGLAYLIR

Consider `CN1CCCn2c(C(=O)O)c(CCCOc3cccc4ccccc34)c3cccc(c32)-c2c(COc3ccc(N4CCOCC4)cc3)nn(C)c2C1` (single isomer, unassigned) [Example 1-88, (+)-7,9-dimethyl-11-{[4-(morpholin-4-yl)phenoxy]methyl}-1-[3-(naphthalen-1-yloxy)propyl]-4,5,6,7,8,9-hexahydropyrazolo[3′,4′:7,8][1,5]diazecino[9,10,1-hi]indole-2-carboxylic Acid], for which the IC50 in the data set with SUDHL10 [1] (setting [7]) is 6.19e-06 M; with SUDHL5 [2] (Homo sapiens, SU-DHL-5, 72 h) it was greater than 3.3e-05 M; on MCL-1, 0.00789 µM; in the data set with SUDHL5 [4] (setting [8]) it was 5.9e-06 M; in the data set with A2780 (Homo sapiens, A2780, 72 h), greater than 3.3e-05 M; with OPM2 (Homo sapiens, OPM-2, 72 h) it was greater than 3.3e-05 M. The IC50 with SUDHL10 [6] (Homo sapiens, SU-DHL10, 72 h) is greater than 3.3e-05 M. In addition, the EC50 in the data set with SUDHL10 [3] worked out at 6.35 µM; with SUDHL5 [5] (Homo sapiens, SU-DHL-5, 3 h), 6.03 µM.

Take `CN1CCCn2c(C(=O)O)c(CCCOc3cccc4ccccc34)c3cccc(c32)-c2c(COc3ccc(N4CCOCC4)cc3)nn(C)c2C1` (single isomer, unassigned) [Example 1-89, (−)-7,9-dimethyl-11-{[4-(morpholin-4-yl)phenoxy]methyl}-1-[3-(naphthalen-1-yloxy)propyl]-4,5,6,7,8,9-hexahydropyrazolo[3′,4′:7,8][1,5]diazecino[9,10,1-hi]indole-2-carboxylic Acid]: the IC50 in the data set with SUDHL10 [1] (setting [9]) was 1.14e-05 M; with SUDHL5 [2], greater than 3.3e-05 M; on MCL-1 it was 0.0541 µM; in the data set on SUDHL5 [4] (setting [8]), 1.39e-05 M; with A2780 it was greater than 3.3e-05 M; with OPM2 it was greater than 3.3e-05 M. Further, in the data set with SUDHL10 [6], the IC50 turned out to be 2.02e-05 M. Also, the EC50 came to 27.5 µM in the data set on SUDHL10 [3] and 11.7 µM in the data set on SUDHL5 [5].

On to `CCN(CC)S(=O)(=O)N1CCN(c2ccc(OCc3nn(C)c4c3-c3cccc5c(CCCOc6cccc7ccccc67)c(C(=O)O)n(c35)CCCCOC4)cc2)CC1` (single isomer, unassigned; enantiomer 1) [Example 1-4, 3-({4-[4-(diethylsulfamoyl)piperazin-1-yl]phenoxy}methyl)-1-methyl-7-[3-(naphthalen-1-yloxy)propyl]-1,10,11,12,13,15-hexahydropyrazolo[4′,3′:9,10][1,6]oxazacycloundecino[8,7,6-hi]indole-8-Carboxylic acid (Enantiomer 1)], for which the IC50 in the data set with SUDHL10 [1] (setting [7]) turned out to be 7.42e-06 M; in the data set on SUDHL5 [2], 2.43e-06 M; against MCL-1 it was 0.304 µM; with SUDHL5 [4] (setting [8]), 1.83e-05 M; in the data set with A2780 it was 2.47e-06 M; in the data set with OPM2 it was 3.36e-06 M. Also, the IC50 in the data set on SUDHL10 [6] (Homo sapiens, SU-DHL10, 72 h) is 1.73e-06 M. For the same compound, the EC50 in the data set with SUDHL10 [3] (Homo sapiens, SU-DHL10, 3 h) was found to be 5.18 µM; in the data set with SUDHL5 [5] it was 15.2 µM.

`COCc1nn(C)c2c1-c1cccc3c(CCCOc4cccc5ccccc45)c(C(=O)O)n(c13)CCCN(C)C2` (single isomer, unassigned; enantiomer 1) [Example 1-103, 11-(methoxymethyl)-7,9-dimethyl-1-[3-(1-naphthyloxy)propyl]-4,5,6,7,8,9-hexahydropyrazolo[3′,4′:7,8][1,5]diazecino[9,10,1-hi]indole-2-carboxylic Acid (Enantiomer 1)]: the IC50 with SUDHL10 [1] (setting [7]) is 1.27e-05 M; in the data set on SUDHL5 [2] (Homo sapiens, SU-DHL-5, 72 h), 3.92e-06 M; against MCL-1 it was 0.00735 µM; in the data set on SUDHL5 [4] (setting [10]), 3.97e-06 M; with A2780 (Homo sapiens, A2780, 72 h), greater than 3.3e-05 M; in the data set on OPM2 (Homo sapiens, OPM-2, 72 h), 1.58e-05 M. Further, the IC50 in the data set on SUDHL10 [6] (Homo sapiens, SU-DHL10, 72 h) worked out at 1.02e-05 M. For the same compound, the EC50 came out at 7.79 µM in the data set on SUDHL10 [3] (Homo sapiens, SU-DHL10, 3 h) and 2.83 µM in the data set on SUDHL5 [5] (Homo sapiens, SU-DHL-5, 3 h).

As for `Cc1c2c(nn1CCN1CCOCC1)COCCCCn1c(C(=O)O)c(CCCOc3cccc4ccccc34)c3cccc-2c31` (single isomer, unassigned; enantiomer 1) [Example 054, 3-methyl-2-[2-(morpholin-4-yl)ethyl]-7-[3-(naphthalen-1-yloxy)propyl]-2,10,11,12,13,15-hexahydropyrazolo[4′,3′:9,10][1,6]oxazacycloundecino[8,7,6-hi]indole-8-carboxylic acid-N-ethylethanamine Salt (Enantiomer 1)], the IC50 in the data set with SUDHL10 [1] (setting [9]) worked out at 4.68e-06 M; in the data set on SUDHL5 [2] (Homo sapiens, SU-DHL-5, 72 h), 8.08e-07 M; on MCL-1 it was 0.00156 µM; with SUDHL5 [4] (setting [8]), 1.61e-06 M; in the data set on A2780 (Homo sapiens, A2780, 72 h), 2.48e-05 M; with OPM2, 7.46e-06 M. The IC50 in the data set with SUDHL10 [6] came to 2.44e-06 M. For the same compound, the EC50 worked out at 6.64 µM in the data set on SUDHL10 [3] and 1.47 µM in the data set with SUDHL5 [5].

`Cn1nc(COc2ccc(N3CCOCC3)cc2)c2c1COCCCCn1c(C(=O)O)c(CCCOc3cccc4ccccc34)c3cccc-2c31` (single isomer, unassigned; enantiomer 1) [Example 122, 1-methyl-3-{[4-(morpholin-4-yl)phenoxy]methyl}-7-[3-(naphthalen-1-yloxy)propyl]-1,10,11,12,13,15-hexahydropyrazolo[4′,3′:9,10][1,6]oxazacycloundecino[8,7,6-hi]indole-8-carboxylic Acid (Enantiomer 1)]: the IC50 in the data set with SUDHL10 [1] (setting [7]) is greater than 3.3e-05 M; in the data set on SUDHL5 [2], 1.03e-05 M; on MCL-1, 0.0577 µM; with SUDHL5 [4] (setting [8]), 2.92e-05 M; in the data set on A2780 (Homo sapiens, A2780, 72 h), 7.4e-06 M; in the data set with OPM2 (Homo sapiens, OPM-2, 72 h), 2.79e-06 M. In addition, the IC50 in the data set on SUDHL10 [6] (Homo sapiens, SU-DHL10, 72 h) was 1.17e-05 M. Besides, the EC50 in the data set with SUDHL10 [3] was found to be 21.8 µM; in the data set on SUDHL5 [5] it was 27.5 µM.

For the compound `CN1CCCn2c(C(=O)O)c(CCCOc3cccc4ccccc34)c3cccc(c32)-c2c(CNCC(F)(F)F)nn(C)c2C1` (single isomer, unassigned; enantiomer 1) [Example 130, 7,9-dimethyl-1-(3-(naphthalen-1-yloxy)propyl-11-{[(2,2,2-trifluoroethyl)amino]methyl}-4,5,6,7,8,9-hexahydropyrazolo[3′,4′:7,8][1,5]diazecino[9,10,1-hi]indole-2-carboxylic acid-N-ethylethanamine Salt (Enantiomer 1)], the IC50 in the data set with SUDHL10 [1] (setting [7]) is 1.71e-05 M; in the data set with SUDHL10 [1] (setting [9]), greater than 3.3e-05 M; in the data set with SUDHL5 [2] (Homo sapiens, SU-DHL-5, 72 h) it was 1.17e-05 M; against MCL-1 it was 0.0331 µM; with SUDHL5 [4] (setting [10]), 1.53e-05 M; in the data set on A2780 (Homo sapiens, A2780, 72 h) it was 1.11e-05 M. Further, the IC50 was found to be 6e-06 M in the data set on OPM2 and 6.42e-06 M in the data set on SUDHL10 [6] (Homo sapiens, SU-DHL10, 72 h). Moreover, the EC50 with SUDHL10 [3] (Homo sapiens, SU-DHL10, 3 h) is 24.4 µM; with SUDHL10 [3], greater than 33 µM; with SUDHL5 [5] (Homo sapiens, SU-DHL-5, 3 h) it was 18.9 µM.

Consider `COCc1nn(C)c2c1-c1cccc3c(CCCOc4cccc5ccccc45)c(C(=O)O)n(c13)CCCCOC2` (single isomer, unassigned; enantiomer 1) [Example 159, 3-(methoxymethyl)-1-methyl-7-[3-(naphthalen-1-yloxy)propyl]-1,10,11,12,13,15-hexahydropyrazolo[4′,3′:9,01][1,6]oxazacycloundecino[8,7,6-hi]indole-8-carboxylic acid-N-ethylethanamine Salt (Enantiomer 1)], for which the IC50 was 3.05e-05 M in the data set with SUDHL10 [1] (setting [7]); greater than 3.3e-05 M with SUDHL10 [1] (setting [9]); 1.75e-05 M in the data set on SUDHL5 [2]; 0.0238 µM against MCL-1; 1.76e-05 M with SUDHL5 [4] (setting [10]); greater than 3.3e-05 M with A2780 (Homo sapiens, A2780, 72 h). Also, the IC50 in the data set on OPM2 (Homo sapiens, OPM-2, 72 h) was greater than 3.3e-05 M; in the data set on SUDHL10 [6], 2.98e-05 M and > 3.3e-05 M. Besides, the EC50 in the data set on SUDHL10 [3] (Homo sapiens, SU-DHL10, 3 h) is 28.6 µM; in the data set with SUDHL10 [3], greater than 33 µM; in the data set on SUDHL5 [5] (Homo sapiens, SU-DHL-5, 3 h), 13.8 µM.

As to `CCOCc1nn(C)c2c1-c1cccc3c(CCCOc4cccc5ccccc45)c(C(=O)O)n(c13)CCCCOC2` (single isomer, unassigned; enantiomer 1) [Example 169, 3-(ethoxymethyl)-1-methyl-7-[3-(naphthalen-1-yloxy)propyl]-1,10,11,12,13,15-hexahydropyrazolo[4′3′:9,10][1,6]oxazacycloundecino[8,7,6-hi]indole-8-carboxylic Acid (Enantiomer 1)], the IC50 with SUDHL10 [1] (setting [7]) was 2.01e-05 M; in the data set with SUDHL10 [1] (setting [9]), greater than 3.3e-05 M; in the data set with SUDHL5 [2], 2.68e-05 M; on MCL-1, 0.0184 µM; with SUDHL5 [4] (setting [8]), 1.74e-05 M and > 3.3e-05 M; in the data set with A2780 (Homo sapiens, A2780, 72 h), 2.02e-05 M. For the same compound, the IC50 with OPM2 (Homo sapiens, OPM-2, 72 h) was determined as 2.04e-05 M; with SUDHL10 [6] it was 2.02e-05 M. Also, the EC50 in the data set with SUDHL10 [3] and in the data set on SUDHL5 [5] was greater than 33 µM each time.

The values are drawn from patent US10981932B2, “Macrocyclic indole derivatives” (Bayer Aktiengesellschaft, priority 2016, dated 2021).
